According to ChEMBL document CHEMBL1615344, “Cerep in vitro phospholipidosis assay data”:

Columns and labels:
[1] = tested on: Phospholipidosis; assay: (§1) Cerep Phospholipidosis assay (HepG2 cells); assay type: ADME, cell-based; conditions: human, hepg2
[2] = as §1; assay type: ADME, cell-based; conditions: human, HepG2 cells; read-out: Maximum test concentration that did not exhibit cytotoxicity

Compound: CC(=O)Nc1ccc(O)cc1 [ACETAMINOPHEN]
- Phospholipidosis as % of positive control [1]: 0.3%
- MNTC [2]: 100 µM

Compound: Nc1c(Br)cc(Br)cc1CN[C@H]1CC[C@H](O)CC1 [AMBROXOL]
- Phospholipidosis as % of positive control [1]: 29.7%
- MNTC [2]: 50 µM

Compound: NCC[C@H](O)C(=O)N[C@@H]1C[C@H](N)[C@@H](O[C@H]2O[C@H](CN)[C@@H](O)[C@H](O)[C@H]2O)[C@H](O)[C@H]1O[C@H]1O[C@H](CO)[C@@H](O)[C@H](N)[C@H]1O [AMIKACIN]
- Phospholipidosis as % of positive control [1]: 4.9%
- MNTC [2]: 25 µM

Compound: CCCCc1oc2ccccc2c1C(=O)c1cc(I)c(OCCN(CC)CC)c(I)c1 [AMIODARONE]
- Phospholipidosis as % of positive control [1]: 38.4%
- MNTC [2]: 6.25 µM

Compound: CN(C)CCC=C1c2ccccc2CCc2ccccc21 [AMITRIPTYLINE]
- Phospholipidosis as % of positive control [1]: 49.8%
- MNTC [2]: 20 µM

Compound: CC[C@H]1OC(=O)[C@H](C)[C@@H](O[C@H]2C[C@@](C)(OC)[C@@H](O)[C@H](C)O2)[C@H](C)[C@@H](O[C@@H]2O[C@H](C)C[C@H](N(C)C)[C@H]2O)[C@](C)(O)C[C@@H](C)CN(C)[C@H](C)[C@@H](O)[C@]1(C)O [AZITHROMYCIN]
- Phospholipidosis as % of positive control [1]: 26.7%
- MNTC [2]: 25 µM

Compound: CN(Cc1cc(Br)cc(Br)c1N)C1CCCCC1 [BROMHEXINE]
- Phospholipidosis as % of positive control [1]: 30.1%
- MNTC [2]: 50 µM

Compound: CCN(CC)CCCC(C)Nc1ccnc2cc(Cl)ccc12 (stereo not drawn) [CHLOROQUINE]
- Phospholipidosis as % of positive control [1]: 22.8%
- MNTC [2]: 10 µM

Compound: CN(C)CCCN1c2ccccc2Sc2ccc(Cl)cc21 [CHLORPROMAZINE]
- Phospholipidosis as % of positive control [1]: 54.7%
- MNTC [2]: 5 µM

Compound: CN(C)CCCC1(c2ccc(F)cc2)OCc2cc(C#N)ccc21 (stereo not drawn) [CITALOPRAM]
- Phospholipidosis as % of positive control [1]: 19.6%
- MNTC [2]: 100 µM

Compound: CN1CCN(C2=Nc3cc(Cl)ccc3Nc3ccccc32)CC1 [CLOZAPINE]
- Phospholipidosis as % of positive control [1]: 18.9%
- MNTC [2]: 12.5 µM

Compound: CN(C)CCC=C1c2ccccc2COc2ccccc21 [DOXEPIN]
- Phospholipidosis as % of positive control [1]: 36.4%
- MNTC [2]: 25 µM

Compound: CC[C@H]1OC(=O)[C@H](C)[C@@H](O[C@H]2C[C@@](C)(OC)[C@@H](O)[C@H](C)O2)[C@H](C)[C@@H](O[C@@H]2O[C@H](C)C[C@H](N(C)C)[C@H]2O)[C@](C)(O)C[C@@H](C)C(=O)[C@H](C)[C@@H](O)[C@]1(C)O [ERYTHROMYCIN]
- Phospholipidosis as % of positive control [1]: 61.9%
- MNTC [2]: 50 µM

Compound: CNCCC(Oc1ccc(C(F)(F)F)cc1)c1ccccc1 (stereo not drawn) [FLUOXETINE]
- MNTC [2]: 5 µM

Compound: O=C(CCCN1CCC(O)(c2ccc(Cl)cc2)CC1)c1ccc(F)cc1 [HALOPERIDOL]
- Phospholipidosis as % of positive control [1]: 42.1%
- MNTC [2]: 12.5 µM

Compound: OCCOCCN1CCN(C(c2ccccc2)c2ccc(Cl)cc2)CC1 (stereo not drawn) [HYDROXYZINE]
- Phospholipidosis as % of positive control [1]: 35.8%
- MNTC [2]: 25 µM

Compound: CN(C)CCCN1c2ccccc2CCc2ccccc21 [IMIPRAMINE]
- Phospholipidosis as % of positive control [1]: 2.1%
- MNTC [2]: 6.25 µM

Compound: CC(=O)N1CCN(c2ccc(OCC3COC(Cn4ccnc4)(c4ccc(Cl)cc4Cl)O3)cc2)CC1 (stereo not drawn) [KETOCONAZOLE]
- Phospholipidosis as % of positive control [1]: 52%
- MNTC [2]: 12.5 µM

Compound: CC(CCc1ccccc1)NCC(O)c1ccc(O)c(C(N)=O)c1 (stereo not drawn) [LABETALOL]
- Phospholipidosis as % of positive control [1]: 5.3%
- MNTC [2]: 25 µM

Compound: CNCCCC12CCC(c3ccccc31)c1ccccc12 [MAPROTILINE]
- Phospholipidosis as % of positive control [1]: 42.2%
- MNTC [2]: 6.25 µM

Compound: Cc1cccc(CN2CCN(C(c3ccccc3)c3ccc(Cl)cc3)CC2)c1 (stereo not drawn) [MECLIZINE]
- Phospholipidosis as % of positive control [1]: 10.5%
- MNTC [2]: 25 µM

Compound: CC1=CC(=O)c2ccccc2C1=O [MENADIONE]
- Phospholipidosis as % of positive control [1]: 1%
- MNTC [2]: 3.13 µM

Compound: CC1COc2c(N3CCN(C)CC3)c(F)cc3c(=O)c(C(=O)O)cn1c23 (stereo not drawn) [OFLOXACIN]
- Phospholipidosis as % of positive control [1]: 0.3%
- MNTC [2]: 50 µM

Compound: C1CCC(C(CC2CCCCN2)C2CCCCC2)CC1 (stereo not drawn) [PERHEXILINE]
- Phospholipidosis as % of positive control [1]: 36%
- MNTC [2]: 3.13 µM

Compound: CC(C)NCC(O)COc1cccc2ccccc12 (stereo not drawn) [PROPRANOLOL]
- Phospholipidosis as % of positive control [1]: 36%
- MNTC [2]: 25 µM

Compound: C=C[C@H]1C[N@@]2CC[C@H]1C[C@@H]2[C@@H](O)c1ccnc2ccc(OC)cc12 [QUINIDINE]
- Phospholipidosis as % of positive control [1]: 3.2%
- MNTC [2]: 25 µM

Compound: CN[C@H]1CC[C@@H](c2ccc(Cl)c(Cl)c2)c2ccccc21 [SERTRALINE]
- Phospholipidosis as % of positive control [1]: 100%
- MNTC [2]: 3.13 µM

Compound: CC(C)NCC(O)c1ccc(NS(C)(=O)=O)cc1 (stereo not drawn) [SOTALOL]
- Phospholipidosis as % of positive control [1]: 0.3%
- MNTC [2]: 50 µM

Compound: CC/C(=C(\c1ccccc1)c1ccc(OCCN(C)C)cc1)c1ccccc1 [TAMOXIFEN]
- Phospholipidosis as % of positive control [1]: 53%
- MNTC [2]: 6.25 µM

Compound: CCN(CC)CCOc1ccc2c(c1)C(=O)c1cc(OCCN(CC)CC)ccc1-2 [TILORONE]
- Phospholipidosis as % of positive control [1]: 20.2%
- MNTC [2]: 3.13 µM

Compound: CCN(CC)CCOc1ccc(C(O)(Cc2ccc(Cl)cc2)c2ccc(C)cc2)cc1 (stereo not drawn) [TRIPARANOL]
- Phospholipidosis as % of positive control [1]: 44.9%
- MNTC [2]: 3.13 µM

Compound: CCCC(CCC)C(=O)O [VALPROIC ACID]
- Phospholipidosis as % of positive control [1]: 0.2%
- MNTC [2]: 100 µM
